Results: patent publication US4740233A, “Substituted 1,2,4-triazolo[1,5-a]-pyrimidine-2-sulfonamides and compositions and methods of controlling undesired vegetation and suppressing the nitrification of ammonium nitrogen in soil” (The Dow Chemical Company, priority 1986, dated 1988)

Assays:
[1] = tested on: soybean; experiment: Preemergent control of plant species; assay type: in vivo, Glycine max.; details: Glycine max, pre-emergence, 336 h; 0.25 lb/acre; read-out: percent preemergent control
How it was run: (§1)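 Test compositions were applied evenly to the surface of freshly seeded soil beds and kept under greenhouse conditions for two weeks. Percent control reflects growth reduction compared with water-treated beds of the same species.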

[2] = tested on: yellow nutsedge; experiment: Control of aquatic plant species (paddy water); assay type: in vivo, Cyperus esculentus; details: Cyperus, 216 h, nine days, read-out: Percent control
How it was run: (§2)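 Compound, delivered as an acetone concentrate, is injected directly into paddy water over transplanted 1-2 inch plants flooded about 1 inch deep, with dose set by injected volume; percent control is read nine days later.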

[3] = tested on: crabgrass; experiment: Preemergent control of plant species; assay type: in vivo, Digitaria spp.; details: Digitaria sanguinalis, pre-emergence, 336 h; 0.25 lb/acre; read-out: percent preemergent control
How it was run: as §1

[4] = tested on: corn; experiment: Preemergent control of plant species; assay type: in vivo, Zea mays; details: Zea mays, pre-emergence, 336 h; 0.25 lb/acre; read-out: percent preemergent control
How it was run: as §1

[5] = tested on: wheat; experiment: Preemergent control of plant species; assay type: in vivo, Triticum aestivum; details: Triticum aestivum, pre-emergence, 336 h; 0.25 lb/acre; read-out: percent preemergent control
How it was run: as §1

[6] = tested on: nitrification of ammonium nitrogen; experiment: Suppression of nitrification of ammonium nitrogen in soil; details: 27° C.
How it was run: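 Value is % NH4-N remaining after a two-week, 27° C incubation of treated soil held at 1/3 bar tension moisture. Nitrate was measured with an ion-selective electrode after extraction with ammonium sulfate solution and 10 min shaking.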

[7] = tested on: sugar beet; experiment: Preemergent control of plant species; assay type: in vivo, Beta saccharifera; details: Beta vulgaris, pre-emergence, 336 h; 0.25 lb/acre; read-out: percent preemergent control
How it was run: as §1

[8] = tested on: jimsonweed; experiment: Preemergent control of plant species; assay type: in vivo, Datura stramonium; details: Datura stramonium, pre-emergence, 336 h; 0.25 lb/acre; read-out: percent preemergent control
How it was run: as §1

[9] = tested on: barnyardgrass; experiment: Preemergent control of plant species; assay type: in vivo, Echinochloa crusgalli; details: Echinochloa crus-galli, pre-emergence, 336 h; 0.25 lb/acre; read-out: percent preemergent control
How it was run: as §1

[10] = tested on: pigweed; experiment: Preemergent control of plant species; assay type: in vivo, Amaranthus spp.; details: Amaranthus retroflexus, pre-emergence, 336 h; 0.25 lb/acre; read-out: percent preemergent control
How it was run: as §1

[11] = tested on: wild oats; experiment: Preemergent control of plant species; assay type: in vivo; details: Avena fatua, pre-emergence, 336 h; 0.25 lb/acre; read-out: percent preemergent control
How it was run: as §1

[12] = tested on: yellow foxtail; experiment: Preemergent control of plant species; assay type: in vivo, Setaria lutescens; details: Setaria, pre-emergence, 336 h; 0.25 lb/acre; read-out: percent preemergent control
How it was run: as §1

[13] = tested on: yellow nutsedge; experiment: Preemergent control of plant species; assay type: in vivo, Cyperus esculentus; details: Cyperus, pre-emergence, 336 h; 0.25 lb/acre; read-out: percent preemergent control
How it was run: as §1

[14] = tested on: rice; experiment: Preemergent control of plant species; assay type: in vivo, Oryza sativa; details: Oryza sativa, pre-emergence, 336 h; 0.25 lb/acre; read-out: percent preemergent control
How it was run: as §1

[15] = tested on: sprangletop; experiment: Control of aquatic plant species (paddy water); assay type: in vivo, Leptochloa filiformis; details: Leptochloa filiformis, 216 h, nine days, read-out: Percent control
How it was run: as §2

[16] = tested on: sorghum; experiment: Preemergent control of plant species; assay type: in vivo, Sorghum vulgare; details: Sorghum, pre-emergence, 336 h; 0.25 lb/acre; read-out: percent preemergent control
How it was run: as §1

[17] = tested on: annual morning glory; experiment: Preemergent control of plant species; assay type: in vivo, Ipomoea spp.; details: Ipomoea, pre-emergence, 336 h; 0.25 lb/acre; read-out: percent preemergent control
How it was run: as §1

[18] = tested on: velvetleaf; experiment: Preemergent control of plant species; assay type: in vivo, Abutilon theophrasti; details: Abutilon theophrasti, pre-emergence, 336 h; 0.25 lb/acre; read-out: percent preemergent control
How it was run: as §1

[19] = tested on: rape; experiment: Preemergent control of plant species; assay type: in vivo, Brassica napus; details: Brassica napus, pre-emergence, 336 h; 0.25 lb/acre; read-out: percent preemergent control
How it was run: as §1

[20] = tested on: rice; experiment: Control of aquatic plant species (paddy water); assay type: in vivo, Oryza sativa; details: Oryza sativa, 216 h, nine days, read-out: Percent control
How it was run: as §2

[21] = tested on: johnson grass; experiment: Preemergent control of plant species; assay type: in vivo, Sorghum halepense; details: Sorghum halepense, pre-emergence, 336 h; 0.25 lb/acre; read-out: percent preemergent control
How it was run: as §1

[22] = tested on: barnyardgrass; experiment: Control of aquatic plant species (paddy water); assay type: in vivo, Echinochloa crusgalli; details: Echinochloa crus-galli, 216 h, nine days, read-out: Percent control
Experimental: In testing for such utility, the plant species to be tested were transplanted into 16 oz. containers into about 2 inches of soil when they were in the 1-2 inch stage and then flooded to a depth of about 1 inch. An acetone concentrate of the chemical to be tested was then injected into the paddy water, the volume injected being varied as desired to provide the desired concentration. Percent control was evaluated nine days after application.

[23] = tested on: cotton; experiment: Preemergent control of plant species; assay type: in vivo, Gossypium spp.; details: Gossypium hirsutum, pre-emergence, 336 h; 0.25 lb/acre; read-out: percent preemergent control
How it was run: as §1

SMILES	plant injury at 280.212 g/ha [1]	pest or weed control at 280.212 g/ha [3]	plant injury at 280.212 g/ha [4]	plant injury at 280.212 g/ha [5]	% NH4-N Remaining After 2 Weeks Incubation ([6]; 0.06 ppm)	% NH4-N Remaining After 2 Weeks Incubation ([6]; 1 ppm)	plant injury at 280.212 g/ha [7]	pest or weed control at 280.212 g/ha [8]	pest or weed control at 280.212 g/ha [9]	pest or weed control at 280.212 g/ha [10]	pest or weed control at 280.212 g/ha [11]	pest or weed control at 280.212 g/ha [12]	pest or weed control at 280.212 g/ha [13]	plant injury at 280.212 g/ha [14]	plant injury at 280.212 g/ha [16]	pest or weed control at 280.212 g/ha [17]	pest or weed control at 280.212 g/ha [18]	plant injury at 280.212 g/ha [19]	pest or weed control at 280.212 g/ha [21]	plant injury at 280.212 g/ha [23]	also measured
Cc1nc2nc(S(=O)(=O)Nc3c(Cl)cccc3Cl)nn2c(C)c1C [Compound 111]	10%	90%	35%	0%	22%	69%	90%	95%	15%	50%	0%	30%	93%	65%	65%	20%	80%	95%	75%	20%	pest or weed control at 4000 g/ha ([2]; 4.0 Kg/Ha): 99%; % NH4-N Remaining After 2 Weeks Incubation ([6]; 0.25 ppm): 60%; % NH4-N Remaining After 2 Weeks Incubation ([6]; 4 ppm): 92%; pest or weed control at 4000 g/ha ([15]; 4.0 Kg/Ha): 80%; pest or weed control at 4000 g/ha ([20]; 4.0 Kg/Ha): 93%; pest or weed control at 4000 g/ha ([22]; 4.0 Kg/Ha): 99%
Cc1ccn2nc(S(=O)(=O)Nc3c(Cl)cccc3Cl)nc2n1 [Compound 143, 5-Methyl-N-(2,6-dichlorophenyl)-1,2,4-triazolo[1,5-a]pyrimidine-2-sulfonamide]	70%	100%	95%	50%	–	91%	100%	100%	97%	100%	50%	97%	100%	97%	99%	90%	97%	95%	100%	100%	pest or weed control at 31 g/ha ([2]; 0.031 Kg/Ha): 93%; pest or weed control at 500 g/ha ([2]; 0.5 Kg/Ha): 97%; % NH4-N Remaining After 2 Weeks Incubation ([6]; 0.01 ppm): 50%; % NH4-N Remaining After 2 Weeks Incubation ([6]; 0.1 ppm): 78%; % NH4-N Remaining After 2 Weeks Incubation ([6]; 10 ppm): 100%; pest or weed control at 31 g/ha ([15]; 0.031 Kg/Ha): 0%; pest or weed control at 500 g/ha ([15]; 0.5 Kg/Ha): 97%; pest or weed control at 31 g/ha ([20]; 0.031 Kg/Ha): 0%; pest or weed control at 500 g/ha ([20]; 0.5 Kg/Ha): 95%; pest or weed control at 31 g/ha ([22]; 0.031 Kg/Ha): 95%; pest or weed control at 500 g/ha ([22]; 0.5 Kg/Ha): 99%
Cc1cc(C)n2nc(S(=O)(=O)Nc3c(Cl)cccc3Cl)nc2n1 [Compound 22, 5,7-Dimethyl-N-(2,6-dichlorophenyl)-1,2,4-triazolo[1,5-a]pyrimidine-2-sulfonamide]	95%	95%	50%	50%	69%	86%	98%	100%	95%	100%	90%	98%	98%	90%	95%	70%	98%	100%	98%	95%	pest or weed control at 250 g/ha ([2]; 0.25 Kg/Ha): 97%; % NH4-N Remaining After 2 Weeks Incubation ([6]; 0.125 ppm): 77%; % NH4-N Remaining After 2 Weeks Incubation ([6]; 0.25 ppm): 82%; % NH4-N Remaining After 2 Weeks Incubation ([6]; 0.5 ppm): 86%; pest or weed control at 250 g/ha ([15]; 0.25 Kg/Ha): 30%; pest or weed control at 250 g/ha ([20]; 0.25 Kg/Ha): 97%; pest or weed control at 250 g/ha ([22]; 0.25 Kg/Ha): 97%
